Here are results for 33 compounds from patent publication US9751858B2, “3-heteroaroylamino-propionic acid derivatives and their use as pharmaceuticals” (SANOFI, priority 2011, dated 2017).

pIC50: −log10 of the molar value.

The test deals with T1, Recombinant human cathepsin A (Homo sapiens, UniProt P10619).
T1 construct: Recombinant human cathepsin A (residues 29-480, with a C-terminal 10-His tag); 10-His (C); purchased R&D Systems 1049-SE
T1 sequence (P10619 29-326 limits assumed): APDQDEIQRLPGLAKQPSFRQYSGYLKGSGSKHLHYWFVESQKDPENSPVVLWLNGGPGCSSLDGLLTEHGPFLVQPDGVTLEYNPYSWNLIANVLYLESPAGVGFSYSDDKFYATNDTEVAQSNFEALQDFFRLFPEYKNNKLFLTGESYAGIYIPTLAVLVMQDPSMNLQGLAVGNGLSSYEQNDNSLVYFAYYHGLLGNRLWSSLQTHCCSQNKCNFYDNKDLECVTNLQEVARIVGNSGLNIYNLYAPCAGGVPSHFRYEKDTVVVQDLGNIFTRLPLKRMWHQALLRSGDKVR
T1 sequence (P10619 327-480 limits assumed): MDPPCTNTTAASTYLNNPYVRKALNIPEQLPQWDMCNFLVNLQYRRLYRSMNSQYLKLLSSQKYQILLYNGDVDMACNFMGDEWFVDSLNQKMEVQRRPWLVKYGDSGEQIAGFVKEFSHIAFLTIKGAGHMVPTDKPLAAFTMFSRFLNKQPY
As to the kind of experiment: Cathepsin A inhibitory activity. It counts as biochemical. To be noted: activated recombinant human cathepsin A 833 ng/ml, Bodipy FL-labeled bradykinin 2 μM, pH 5.5, 15 min room temperature. The essentials: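 Cathepsin A activated by cathepsin L (15 min, 37 °C, pH 6.0), then preincubated 15 min at room temperature with compound in 25 mM MES pH 5.5, 5 mM DTT. Bodipy FL-bradykinin cleavage ran 15 min at room temperature; substrate and product separated by microfluidic capillary electrophoresis, turnover from peak areas.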

As usually defined, the pIC50 is −log10 of the IC50, conventionally taken in molar units.

With `CCCC1CCCCN1C(=O)c1cc(C(=O)N[C@@H](CC(=O)O)c2ccccc2C)nn1CC` (stereo partly drawn) [Example 114, (S)-3-{[1-Ethyl-5-(2-propyl-piperidine-1-carbonyl)-1H-pyrazole-3-carbonyl]-amino}-3-o-tolyl-propionic acid], the pIC50 is 6.09. Next, `Cc1ccccc1[C@H](CC(=O)O)NC(=O)c1nn(C)cc1NS(=O)(=O)CC(C)(C)C` [Example 95, (S)-3-{[4-(2,2-Dimethyl-propane-1-sulfonylamino)-1-methyl-1H-pyrazole-3-carbonyl]-amino}-3-o-tolyl-propionic acid]: under 5.00. Next, `Cc1ccccc1[C@H](CC(=O)O)NC(=O)c1nc(-c2ccccc2F)oc1C` [Example 25, (S)-3-{[2-(2-Fluoro-phenyl)-5-methyl-oxazole-4-carbonyl]-amino}-3-o-tolyl-propionic acid]: 6.51. Then `Cc1oc(-c2ccccc2)nc1C(=O)N[C@@H](CC(=O)O)c1ccccc1Cl` [Example 32, (S)-3-(2-Chloro-phenyl)-3-[(5-methyl-2-phenyl-oxazole-4-carbonyl)-amino]-propionic acid], with 5.92; and `Cc1ccccc1[C@H](CC(=O)O)NC(=O)c1nn(Cc2ccccc2)c2ccccc12` [Example 72, (S)-3-[(1-Benzyl-1H-indazole-3-carbonyl)-amino]-3-o-tolyl-propionic acid], with 6.77; and `O=C(N[C@H](C(=O)O)C1CCCCC1)c1noc(-c2cnccc2C(F)(F)F)n1` [Example 54, (S)-Cyclohexyl-{[5-(4-trifluoromethyl-pyridin-3-yl)-[1,2,4]oxadiazole-3-carbonyl]-amino}-acetic acid], with 4.78.

Turning to `Cc1oc(-c2ccccc2)nc1C(=O)NC(CC(=O)O)C1CCCCC1` (stereo not drawn) [Example 3, 3-Cyclohexyl-3-[(5-methyl-2-phenyl-oxazole-4-carbonyl)-amino]-propionic acid], the pIC50 was 5.30. Then `O=C(O)CC(Cc1ccccc1)NC(=O)c1nc(-c2ccccc2)n(-c2ccccc2)n1` (stereo not drawn) [Example 86, 3-[(1,5-Diphenyl-1H-[1,2,4]triazole-3-carbonyl)-amino]-4-phenyl-butyric acid], with 5.65; and `Cc1oc(-c2ccccc2F)nc1C(=O)N[C@@H](CC(=O)O)c1ccc(C(F)(F)F)cc1` [Example 93, (S)-3-{[2-(2-Fluoro-phenyl)-5-methyl-oxazole-4-carbonyl]-amino}-3-(4-trifluoromethyl-phenyl)-propionic acid], with 6.03; and `COc1cccc([C@H](CC(=O)O)NC(=O)c2nc(-c3ccccc3)oc2C)c1` [Example 24, (S)-3-(3-Methoxy-phenyl)-3-[(5-methyl-2-phenyl-oxazole-4-carbonyl)-amino]-propionic acid], with 5.19. Next, `Cc1ccccc1[C@H](CC(=O)O)NC(=O)c1nc(-c2ccccc2)n(-c2ccccc2)n1` [Example 84, (S)-3-[(1,5-Diphenyl-1H-[1,2,4]triazole-3-carbonyl)-amino]-3-o-tolyl-propionic acid]: 7.27; `Cc1oc(-c2ccccc2)nc1C(=O)NC(CC(=O)O)Cc1ccccc1` (stereo not drawn) [Example 4, 3-[(5-Methyl-2-phenyl-oxazole-4-carbonyl)-amino]-4-phenyl-butyric acid]: 4.89. Next, `O=C(O)C[C@H](NC(=O)c1nc(-c2ccccc2)n(-c2ccccc2)n1)c1ccccc1F` [Example 90, (S)-3-[(1,5-Diphenyl-1H-[1,2,4]triazole-3-carbonyl)-amino]-3-(2-fluoro-phenyl)-propionic acid]: 6.45. For `O=C(O)C[C@@H](Cc1ccccc1)NC(=O)c1noc(-c2cccc(F)c2F)n1` [Example 41, (R)-3-{[5-(2,3-Difluoro-phenyl)-[1,2,4]oxadiazole-3-carbonyl]-amino}-4-phenyl-butyric acid], the pIC50 is 4.87.

Take `CCn1nc(C(=O)N[C@@H](CC(=O)O)c2ccccc2C)cc1-c1ccccc1` [Example 21, (S)-3-[(1-Ethyl-5-phenyl-1H-pyrazole-3-carbonyl)-amino]-3-o-tolyl-propionic acid]: the pIC50 was 6.82.

Turning to `COc1ccc([C@H](CC(=O)O)NC(=O)CCc2nc(-c3ccccc3F)no2)cc1` [Example 73, (S)-3-{3-[3-(2-Fluoro-phenyl)-[1,2,4]oxadiazol-5-yl]-propionylamino}-3-(4-methoxy-phenyl)-propionic acid], the pIC50 was under 5.00. Turning to `CCCC1CCCCN1C(=O)c1cc(C(=O)N[C@@H](CC(=O)O)c2ccc(C)cc2)nn1CC` (stereo partly drawn) [Example 115, (S)-3-{[1-Ethyl-5-(2-propyl-piperidine-1-carbonyl)-1H-pyrazole-3-carbonyl]-amino}-3-p-tolyl-propionic acid], the pIC50 was 5.60. Then `Cc1nc(C(=O)N[C@@H](CC(=O)O)c2ccccc2)nn1-c1ccccc1Cl` [Example 33, (S)-3-{[1-(2-Chloro-phenyl)-5-methyl-1H-[1,2,4]triazole-3-carbonyl]-amino}-3-phenyl-propionic acid], with 5.99; and `O=C(O)C[C@H](NC(=O)CCc1nc(-c2ccccc2F)no1)c1ccccc1C(F)(F)F` [Example 110, (S)-3-{3-[3-(2-Fluoro-phenyl)-[1,2,4]oxadiazol-5-yl]-propionylamino}-3-(2-trifluoromethyl-phenyl)-propionic acid], with under 5.00. Next, `O=C(O)C[C@H](NC(=O)CCc1nc(-c2ccccc2F)no1)c1ccccc1F` [Example 59, (S)-3-(2-Fluoro-phenyl)-3-{3-[3-(2-fluoro-phenyl)-[1,2,4]oxadiazol-5-yl]-propionylamino}-propionic acid]: 6.47; `O=C(O)C[C@H](NC(=O)CCc1nc(-c2ccccc2F)no1)c1cccc(Cl)c1` [Example 74, (S)-3-(3-Chloro-phenyl)-3-{3-[3-(2-fluoro-phenyl)-[1,2,4]oxadiazol-5-yl]-propionylamino}-propionic acid]: 6.21.

For `O=C(O)C[C@H](NC(=O)CCc1nc(-c2ccccc2F)no1)c1cccc(C(F)(F)F)c1` [Example 113, (S)-3-{3-[3-(2-Fluoro-phenyl)-[1,2,4]oxadiazol-5-yl]-propionylamino}-3-(3-trifluoromethyl-phenyl)-propionic acid], the pIC50 was under 5.00. Then `CC(C)c1oc(-c2ccccc2)nc1C(=O)NC(CC(=O)O)Cc1ccccc1` (stereo not drawn) [Example 45, 3-[(5-Isopropyl-2-phenyl-oxazole-4-carbonyl)-amino]-4-phenyl-butyric acid], with 5.05; and `Cc1oc(-c2ccccc2)nc1C(=O)N[C@@H](CC(=O)O)c1cccc(Cl)c1` [Example 28, (S)-3-(3-Chloro-phenyl)-3-[(5-methyl-2-phenyl-oxazole-4-carbonyl)-amino]-propionic acid], with 5.95. Regarding `Cc1oc(-c2ccccc2F)nc1C(=O)N[C@@H](CC(=O)O)Cc1ccccc1` [Example 29, (R)-3-{[2-(2-Fluoro-phenyl)-5-methyl-oxazole-4-carbonyl]-amino}-4-phenyl-butyric acid], the pIC50 is 6.27. Turning to `Cc1oc(-c2ccccc2)nc1C(=O)N[C@@H](CC(=O)O)c1cccc(Cl)c1Cl` [Example 76, (S)-3-(2,3-Dichloro-phenyl)-3-[(5-methyl-2-phenyl-oxazole-4-carbonyl)-amino]-propionic acid], the pIC50 is 6.23. As for `O=C(O)CC(NC(=O)c1nc(-c2ccccc2)oc1C(F)(F)F)C1CCCCC1` (stereo not drawn) [Example 68, 3-Cyclohexyl-3-[(2-phenyl-5-trifluoromethyl-oxazole-4-carbonyl)-amino]-propionic acid], the pIC50 was 4.83. As to `Cc1ccccc1[C@H](CC(=O)O)NC(=O)c1cc(-c2ccc(Cl)cc2)on1` [Example 26, (S)-3-{[5-(4-Chloro-phenyl)-isoxazole-3-carbonyl]amino}-3-o-tolyl-propionic acid], the pIC50 is under 5.00. Then `O=C(O)C[C@H](NC(=O)c1nc(-c2ccccc2)oc1C(F)(F)F)c1ccccc1Cl` [Example 97, (S)-3-(2-Chloro-phenyl)-3-[(2-phenyl-5-trifluoromethyl-oxazole-4-carbonyl)-amino]-propionic acid], with 5.13; and `O=C(O)C[C@@H](Cc1ccccc1)NC(=O)CCc1nc(-c2ccccc2F)no1` [Example 49, (R)-3-{3-[3-(2-Fluoro-phenyl)-[1,2,4]oxadiazol-5-yl]-propionylamino}-4-phenyl-butyric acid], with under 5.00.

On to `O=C(O)C[C@H](NC(=O)c1noc(-c2ccccc2F)n1)c1cccc(F)c1` [Example 18, (S)-3-(3-Fluoro-phenyl)-3-{[5-(2-fluoro-phenyl)-[1,2,4]oxadiazole-3-carbonyl]-amino}-propionic acid], for which the pIC50 is under 5.00. Next, `O=C(O)C[C@H](NC(=O)c1noc(-c2ccccc2F)n1)c1ccccc1F` [Example 17, (S)-3-(2-Fluoro-phenyl)-3-{[5-(2-fluoro-phenyl)-[1,2,4]oxadiazole-3-carbonyl]-amino}-propionic acid]: under 5.00; `Cc1oc(-c2ccccc2F)nc1C(=O)N[C@@H](CC(=O)O)c1ccc(F)cc1` [Example 37, (S)-3-(4-Fluoro-phenyl)-3-{[2-(2-fluoro-phenyl)-5-methyl-oxazole-4-carbonyl]-amino}-propionic acid]: 5.38.
